The record followed here is patent US20250134898A1, “USE OF MELANOCORTIN-4 RECEPTOR AGONIST IN PREVENTING OR TREATING RARE GENETIC OBESITY DISEASE” (LG CHEM, LTD., priority 2022, published 2025).

Structures are written as SMILES.

Test [1] deals with Pomc heterozygous knock-out mice. In words: Anti-obesity efficacy in high fat diet POMC heterozygous deficient mouse model. It is filed as in vivo. The note with it: 60 kcal % high-fat diet, 10 mg/kg or 30 mg/kg for about 3 weeks, FIG. 1. The method, then: Pomc heterozygous knock-out mice, in which the Pomc gene encoding proopiomelanocortin (POMC) is not normally expressed, were fed a 60 kcal % high-fat diet (diet with 60 kcal % fat), while administering N-((3S,5S)-1-((3S,4R)-1-(tert-butyl)-4-(4-chlorophenyl)pyrrolidine-3-carbonyl)-5-(morpholine-4-carbonyl)pyrrolidin-3-yl)-N-((1s,4R)-4-methylcyclohexyl)isobutyramide hydrochloride (hereinafter referred to as “test compound”) obtained from the example of preparation at a dose of 10 mg/kg or 30 mg/kg for about 3 weeks to determine the anti-obesity efficacy, and the results are shown in FIG. 1.

Test [2] deals with Pomc homozygous knock-out mice. In words: Anti-obesity efficacy in high fat diet POMC homozygous deficient mouse model. Type of test: in vivo. The note with it: 45 kcal % high-fat diet, 10 mg/kg or 30 mg/kg for about 10 days, FIG. 2. On the procedure:
Pomc homozygous knock-out mice, in which the Pomc gene encoding proopiomelanocortin (POMC) is not expressed, were administered with the test compound at a dose of 10 mg/kg or 30 mg/kg for about 10 days while fed a 45 kcal % high-fat diet (diet with 45 kcal % fat) to determine the anti-obesity efficacy, and the results are shown in FIG. 2.

Turning to `CC(C)C(=O)N([C@H]1C[C@@H](C(=O)N2CCOCC2)N(C(=O)[C@@H]2CN(C(C)(C)C)C[C@H]2c2ccc(Cl)cc2)C1)[C@H]1CC[C@@H](C)CC1.Cl` [test compound, N-((3S,5S)-1-((3S,4R)-1-(tert-butyl)-4-(4-chlorophenyl)pyrrolidine-3-carbonyl)-5-(morpholine-4-carbonyl)pyrrolidin-3-yl)-N-((1s,4R)-4-methylcyclohexyl)isobutyramide hydrochloride], the anti-obesity efficacy entry in test [1] and in test [2] was “excellent anti-obesity effects” throughout.
